According to patent publication US20250345492A1, “AN ANTIBACTERIAL POLYPEPTIDE COMPOUND, A MEDICAL DEVICE, HYDROGEL AND USE THEREOF” (priority 2020, published 2025):
In brackets after ≈: the same amount, converted by molar mass. Square brackets hold non-standard residues; d marks the D form. Peptide text beside a SMILES is read from it. Dap = NC[C@H](N)C(=O)O

How the values were obtained:
[1] = tested on: Bacillus subtilis (ATCC 23857); conditions: ATCC 23857
Text: (§1) With respect to the determination of antibacterial activity and antifungal activity of the antibacterial polypeptide compounds, the bacterial strains employed included: E. coli (ATCC 25922), E. coli (ATCC 43837), Pseudomonas aeruginosa (ATCC 27853), Klebsiella pneumoniae (ATCC 700603), Cronobacter sakazakii (ATCC 29544), Staphylococcus aureus (ATCC 29213), Bacillus subtilis (ATCC 23857) and Staphylococcus epidermidis (ATCC 12228); and the fungal strains employed included Candida albicans (ATCC 14053), Candida glabrata (ATCC 2001), Candida parapsilosis (ATCC 22019), Candida tropicalis (ATCC 750) and Candida krusei (ATCC 6258), all of which were standard strains from American Type Culture Collection. In addition, drug-resistant strains S-1a, S-2a, S-3a, S-4a, E-1b, E-2b, E-3b, E-4b, E-5b, P-1c, P-2c, P-3c, P-4c, P-5c, and clinically isolated fungal strains Candida glabrata 2-1 and Candida albicans 14-1, 14-2 and 14-3 were employed, all which were clinically isolated.
(§2) Simply, a proper amount of the cryopreserved bacterium or fungus was added to fresh MH/SD medium, and cultured on a shaker overnight at 180 rpm at 37° C. The obtained cells were seeded again and cultured on a shaker for 4-5 hours to obtain cells in logarithmic phase. The resulting cells were added to a 96-well plate (1×10^5 CFU/ml, 100 μL/well), and then 100 μL of polypeptide with different concentrations (1-256 μM) twice the final concentrations was added to corresponding well according to the 2-fold serial dilution method. The fresh medium was used as a negative control, which was prepared in triplicate for each concentration. After dosing, the 96-well plate was placed in an incubator at constant 37° C. and humidity for 12 hours to observe the results. According to naked eye observations, the concentration of the compound in the first transparent well following the turbid wells was recorded as the MIC of the compound, namely, the MIC value of the compound to the bacterium or fungus.

[2] = tested on: C. albicans ATCC14053; conditions: ATCC14053
Text: as §1, §2

[3] = tested on: C. glabrata ATCC22019; conditions: ATCC22019
Text: as §1, §2

[4] = tested on: C. krusei ATCC6258; conditions: ATCC6258
Text: as §1, §2

[5] = tested on: C. parapsilosis ATCC2001; conditions: ATCC2001
Text: as §1, §2

[6] = tested on: C. tropicalis ATCC750; conditions: ATCC750
Text: as §1, §2

[7] = tested on: Cronobacter sakazakii (ATCC 29544); conditions: ATCC 29544
Text: as §1, §2

[8] = tested on: E. coli (ATCC 25922); conditions: ATCC 25922
Text: as §1, §2

[9] = tested on: Pseudomonas aeruginosa (ATCC 27853); conditions: standard strain
Text: as §1, §2

[10] = tested on: Staphylococcus aureus (ATCC 29213); conditions: ATCC 29213
Text: as §1, §2

[11] = tested on: Staphylococcus epidermidis (ATCC 12228); conditions: ATCC 12228
Text: as §1, §2

[12] = tested on: E-1b, clinical isolated drug-resistant strain ESBL; conditions: strain E-1b (ESBL)
Text: as §1, §2

[13] = tested on: E-2b, clinical isolated drug-resistant strain ESBL; conditions: strain E-2b (ESBL)
Text: as §1, §2

[14] = tested on: E-3b, clinical isolated drug-resistant strain ESBL; conditions: strain E-3b (ESBL)
Text: as §1, §2

[15] = tested on: E-4b, clinical isolated drug-resistant strain ESBL; conditions: strain E-4b (ESBL)
Text: as §1, §2

[16] = tested on: E-5b, clinical isolated drug-resistant strain ESBL; conditions: strain E-5b (ESBL)
Text: as §1, §2

[17] = tested on: P-1c, clinical isolated drug-resistant strain PA; conditions: strain P-1c (PA)
Text: as §1, §2

[18] = tested on: P-2c, clinical isolated drug-resistant strain PA; conditions: strain P-2c (PA)
Text: as §1, §2

[19] = tested on: P-3c, clinical isolated drug-resistant strain PA; conditions: strain P-3c (PA)
Text: as §1, §2

[20] = tested on: P-4c, clinical isolated drug-resistant strain PA; conditions: strain P-4c (PA)
Text: as §1, §2

[21] = tested on: P-5c, clinical isolated drug-resistant strain PA; conditions: strain P-5c (PA)
Text: as §1, §2

Row | Molecule | MIC B. subtilis ATCC23857 [1] [µM] | MIC C. albicans ATCC14053 [2] [µM] | MIC C. glabrata ATCC22019 [3] [µM] | MIC C. krusei ATCC6258 [4] [µM] | MIC C. parapsilosis ATCC2001 [5] [µM] | MIC C. tropicalis ATCC750 [6] [µM] | MIC C. sakazakii ATCC29544 [7] [µM] | MIC C. coli ATCC25922 [8] [µM] | MIC P. aerugmosa ATCC27853 [9] [µM] | MIC S. aureus ATCC29213 [10] [µM] | MIC S. epidermidis ATCC12228 [11] [µM] | further results
1 | CC(C)C[C@H](NC(=O)[C@H](CCCCN)NC(=O)[C@H](CC(C)C)NC(=O)[C@H](CCCCN)NC(=O)[C@H](CC(C)C)NC(=O)[C@H](CCN)NC(=O)[C@H](Cc1ccccc1)NC(=O)[C@@H]1CCCN1)C(N)=O [Compound 3, Pro-Phe-Dab-Leu-Lys-Leu-Lys-Leu-NH2] (HELM PEPTIDE1{P.F.[Dab].L.K.L.K.L.[am]}$$$$V2.0) | 16 (≈ 15.3 µg/mL) | 32 (≈ 30.6 µg/mL) | 32 (≈ 30.6 µg/mL) | 64 (≈ 61.3 µg/mL) | 16 (≈ 15.3 µg/mL) | 32 (≈ 30.6 µg/mL) | 32 (≈ 30.6 µg/mL) | 32 (≈ 30.6 µg/mL) | 32 (≈ 30.6 µg/mL) | 128 (≈ 123 µg/mL) | 16 (≈ 15.3 µg/mL) | –
2 | CC(C)C[C@H](NC(=O)[C@H](CCN)NC(=O)[C@H](CC(C)C)NC(=O)[C@H](CO)NC(=O)[C@H](CC(C)C)NC(=O)[C@H](CCN)NC(=O)[C@H](Cc1c[nH]c2ccccc12)NC(=O)[C@@H]1CCCN1)C(N)=O [Compound 10, Pro-Trp-Dab-Leu-Ser-Leu-Dab-Leu-NH2] (HELM PEPTIDE1{P.W.[Dab].L.S.L.[Dab].L.[am]}$$$$V2.0) | 16 (≈ 14.8 µg/mL) | 32 (≈ 29.7 µg/mL) | 16 (≈ 14.8 µg/mL) | 32 (≈ 29.7 µg/mL) | 16 (≈ 14.8 µg/mL) | 8 (≈ 7.42 µg/mL) | 8 (≈ 7.42 µg/mL) | 16 (≈ 14.8 µg/mL) | 32 (≈ 29.7 µg/mL) | 32 (≈ 29.7 µg/mL) | 16 (≈ 14.8 µg/mL) | –
3 | CC(C)C[C@H](NC(=O)[C@H](CN)NC(=O)[C@H](CC(C)C)NC(=O)[C@H](CN)NC(=O)[C@H](CC(C)C)NC(=O)[C@H](CN)NC(=O)[C@H](Cc1c[nH]c2ccccc12)NC(=O)[C@@H]1CCCN1)C(N)=O [Compound 11, Pro-Trp-Dap-Leu-Dap-Leu-Dap-Leu-NH2] (H-PW[Dap]L[Dap]L[Dap]L-NH2) | 16 (≈ 14.4 µg/mL) | 64 (≈ 57.5 µg/mL) | 16 (≈ 14.4 µg/mL) | 32 (≈ 28.7 µg/mL) | 16 (≈ 14.4 µg/mL) | 16 (≈ 14.4 µg/mL) | 16 (≈ 14.4 µg/mL) | 16 (≈ 14.4 µg/mL) | 64 (≈ 57.5 µg/mL) | 32 (≈ 28.7 µg/mL) | 16 (≈ 14.4 µg/mL) | –
4 | H-PFKLKLHL-NH2 [Compound 1] | 32 | 32 | 32 | 64 | 32 | 32 | 32 | 32 | 32 | 128 | 32 | –
5 | H-PFRLRLHL-NH2 [Compound 5] | 16 | 16 | 16 | 64 | 16 | 32 | 32 | 16 | 32 | 128 | 32 | –
6 | H-PFRLRLRL-NH2 [Compound 7] | 8 | 8 | 8 | 32 | 8 | 32 | 32 | 8 | 8 | 64 | 16 | –
7 | H-PFRLSLHL-NH2 [Compound 4] | 16 | 32 | 32 | 32 | 16 | 32 | 32 | 32 | 32 | 128 | 32 | –
8 | H-PFRLSLRL-NH2 [Compound 6] | 16 | 32 | 8 | 32 | 16 | 16 | 16 | 8 | 32 | 64 | 16 | –
9 | H-PWRLSLHL-NH2 [Compound 12] | 16 | 32 | 16 | 32 | 16 | 16 | 16 | 16 | 32 | 32 | 8 | –
10 | H-PWRLSLRL-NH2 [Compound 14] | 8 | 8 | 8 | 32 | 8 | 8 | 8 | 8 | 8 | 32 | 16 | –
11 | gentamicin [reference compound] | – | – | – | – | – | – | – | – | – | – | – | MIC [12]: 50 µM; MIC [13]: 50 µM; MIC [14]: 50 µM; MIC [15]: 50 µM; MIC [16]: 50 µM; MIC [17]: 50 µM; MIC [18]: 50 µM; MIC [19]: 25 µM; MIC [20]: 50 µM; MIC [21]: 50 µM
